Experimental data from paper PMC6053381, “Novel 2-phenyloxypyrimidine derivative induces apoptosis and autophagy via inhibiting PI3K pathway and activating MAPK/ERK signaling in hepatocellular carcinoma cells” (Scientific Reports, 2018).

Legend:
PDGFRα = PDGFRα (Homo sapiens, UniProt P16234); assay: PDGFR kinase assay, Caliper microfluidic mobility shift; assay type: biochemical; settings: compound at 1 µM; averages of two separate experiments
Procedure: (§1) In vitro inhibitory activities of all compounds at 1 μM against PDGFRα and PDGFRβ were evaluated using Caliper microfluidic mobility shift technology. […] At the same concentration, only E5 inhibited greater than 50% of PDGFRβ activity (Fig. 2B).
(§2) PDGFR kinase activity was measured using Caliper microfluidic mobility shift technology. Briefly, 2 μL compound solution (25 μM) in 25% DMSO per well were added into the 384 well microtiter plates. Then, 10 μL per well of enzyme solution (100 mM HEPES, 10 mM MgCl2, Brij35 (30%) 100 μL, 1 mM DTT, 20 ng enzyme) was added. After a brief centrifugation at 1,000 rpm, the kinase reactions were started by addition of 38 μL per well of peptide/ATP-solution (40 μM ATP, 6.5 μM peptide 5′-FAM-KKKKEEIYFFF-NH2, Tris-HCl buffer, pH 7.0) incubated at 30 °C for 60 min and stopped by the addition of 20 μL 35 mM EDTA per well. The electrophoretic separation of the phosphorylated and non-phosphorylated peptides was then carried out on LabChip EZ Reader II (Caliper Life Sciences). All other kinase reactions were carried out as previously reported using the Kinase-Glo Plus or ADP-Glo assay. Kinase inhibition rates were calculated per manufacturer’s instructions.

PDGFRβ = PDGFRβ (Homo sapiens, UniProt P09619); assay: as above; assay type: biochemical; settings: compound at 1 µM; averages of two separate experiments
Chain of PDGFRβ (P09619 33-1106): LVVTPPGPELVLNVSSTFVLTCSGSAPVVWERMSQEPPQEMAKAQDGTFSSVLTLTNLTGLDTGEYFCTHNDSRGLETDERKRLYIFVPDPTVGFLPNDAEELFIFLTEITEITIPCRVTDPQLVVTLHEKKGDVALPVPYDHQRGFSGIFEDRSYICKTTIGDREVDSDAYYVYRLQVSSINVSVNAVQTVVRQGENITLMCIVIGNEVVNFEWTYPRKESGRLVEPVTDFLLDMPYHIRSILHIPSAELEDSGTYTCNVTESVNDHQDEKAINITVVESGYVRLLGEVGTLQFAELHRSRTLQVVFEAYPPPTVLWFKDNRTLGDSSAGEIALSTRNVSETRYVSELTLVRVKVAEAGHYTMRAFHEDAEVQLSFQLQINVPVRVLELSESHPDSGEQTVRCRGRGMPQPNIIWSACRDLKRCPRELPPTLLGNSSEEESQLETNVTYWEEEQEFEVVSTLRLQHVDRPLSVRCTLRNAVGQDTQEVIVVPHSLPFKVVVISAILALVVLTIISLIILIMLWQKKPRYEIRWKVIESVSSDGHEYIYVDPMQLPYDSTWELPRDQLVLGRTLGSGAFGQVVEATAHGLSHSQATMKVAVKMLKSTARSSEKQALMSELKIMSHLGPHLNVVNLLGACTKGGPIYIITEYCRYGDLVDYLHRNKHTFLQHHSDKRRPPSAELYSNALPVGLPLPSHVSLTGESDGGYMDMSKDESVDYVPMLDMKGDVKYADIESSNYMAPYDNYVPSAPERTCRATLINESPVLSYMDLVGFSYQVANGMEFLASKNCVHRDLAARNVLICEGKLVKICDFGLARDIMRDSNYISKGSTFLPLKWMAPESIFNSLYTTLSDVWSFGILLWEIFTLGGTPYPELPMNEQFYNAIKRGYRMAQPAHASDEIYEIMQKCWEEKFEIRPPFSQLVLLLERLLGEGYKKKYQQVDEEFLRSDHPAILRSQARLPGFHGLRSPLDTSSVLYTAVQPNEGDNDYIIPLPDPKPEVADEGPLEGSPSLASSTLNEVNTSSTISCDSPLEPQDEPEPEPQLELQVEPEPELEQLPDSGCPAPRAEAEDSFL
Procedure: as §1, §2

BEL7404 = assay: CellTiter-Glo luminescent cell viability assay; assay type: cell-based; settings: 120 h incubation, read-out: Anti-proliferative activity IC50 BEL7404
Excerpt: (§3) The in vitro antitumor activity of all compounds was screened against six HCC cell lines by CellTiter-Glo luminescent cell viability assay as described earlier. […] After a comprehensive assessment of PDGFR inhibition, cellular activity against HCC cells as well as potential druggability, E5 was chosen to investigate its kinase profiling, antitumor activity and molecular mechanism in the following study. […]
(§4) authenticated by using short tandem repeat (STR) matching analysis. No mycoplasma contamination was detected.
(§5) CellTiter-Glo luminescent cell viability assay
(§6) For experiments hepatocellular carcinoma cells were seeded at 4000 cells per well in 96-well plates. After overnight incubation, solution of compounds in DMSO at various concentrations were added to the cells and further incubated for 120 h. Cell viability was measured with the CellTiter-Glo Luminescent Cell Viability Assay (Promega) according to the manufacturer’s instructions. Luminescence was measured using an EnVision Multilabel Plate Reader (Perkin-Elmer). The cytotoxicity of the compounds was expressed as the percent age of luminescence relative to that of untreated cells . The concentration of compound producing 50% of cell proliferation (IC50) was calculated by nonlinear regression analysis of the response-concentration (log) curve, using the Graph-Pad Prism program package (Graph Pad Software; San Diego, CA). Results are expressed as the means of two […] experiments

Hep3B = assay: CellTiter-Glo luminescent cell viability assay; assay type: cell-based; settings: 120 h incubation, read-out: Anti-proliferative activity IC50 Hep3B
Excerpt: as §3, §4, §5, §6

SMMC-7721 = assay: CellTiter-Glo luminescent cell viability assay; assay type: cell-based; settings: 120 h incubation, read-out: Anti-proliferative activity IC50 SMMC-7721
Excerpt: as §3, §4, §5, §6

SNU368 = assay: CellTiter-Glo luminescent cell viability assay; assay type: cell-based; settings: 120 h incubation, read-out: Anti-proliferative activity IC50 SNU368
Excerpt: as §3, §4, §5, §6

MHCC97-L = assay: CellTiter-Glo luminescent cell viability assay; assay type: cell-based; settings: 120 h incubation, read-out: Anti-proliferative activity IC50 MHCC97-L
Excerpt: as §3, §4, §5, §6

QGY-7703 = assay: CellTiter-Glo luminescent cell viability assay; assay type: cell-based; settings: 120 h incubation, read-out: Anti-proliferative activity IC50 QGY-7703
Excerpt: as §3, §4, §5, §6

Chain of PDGFRα (P16234 24-1089): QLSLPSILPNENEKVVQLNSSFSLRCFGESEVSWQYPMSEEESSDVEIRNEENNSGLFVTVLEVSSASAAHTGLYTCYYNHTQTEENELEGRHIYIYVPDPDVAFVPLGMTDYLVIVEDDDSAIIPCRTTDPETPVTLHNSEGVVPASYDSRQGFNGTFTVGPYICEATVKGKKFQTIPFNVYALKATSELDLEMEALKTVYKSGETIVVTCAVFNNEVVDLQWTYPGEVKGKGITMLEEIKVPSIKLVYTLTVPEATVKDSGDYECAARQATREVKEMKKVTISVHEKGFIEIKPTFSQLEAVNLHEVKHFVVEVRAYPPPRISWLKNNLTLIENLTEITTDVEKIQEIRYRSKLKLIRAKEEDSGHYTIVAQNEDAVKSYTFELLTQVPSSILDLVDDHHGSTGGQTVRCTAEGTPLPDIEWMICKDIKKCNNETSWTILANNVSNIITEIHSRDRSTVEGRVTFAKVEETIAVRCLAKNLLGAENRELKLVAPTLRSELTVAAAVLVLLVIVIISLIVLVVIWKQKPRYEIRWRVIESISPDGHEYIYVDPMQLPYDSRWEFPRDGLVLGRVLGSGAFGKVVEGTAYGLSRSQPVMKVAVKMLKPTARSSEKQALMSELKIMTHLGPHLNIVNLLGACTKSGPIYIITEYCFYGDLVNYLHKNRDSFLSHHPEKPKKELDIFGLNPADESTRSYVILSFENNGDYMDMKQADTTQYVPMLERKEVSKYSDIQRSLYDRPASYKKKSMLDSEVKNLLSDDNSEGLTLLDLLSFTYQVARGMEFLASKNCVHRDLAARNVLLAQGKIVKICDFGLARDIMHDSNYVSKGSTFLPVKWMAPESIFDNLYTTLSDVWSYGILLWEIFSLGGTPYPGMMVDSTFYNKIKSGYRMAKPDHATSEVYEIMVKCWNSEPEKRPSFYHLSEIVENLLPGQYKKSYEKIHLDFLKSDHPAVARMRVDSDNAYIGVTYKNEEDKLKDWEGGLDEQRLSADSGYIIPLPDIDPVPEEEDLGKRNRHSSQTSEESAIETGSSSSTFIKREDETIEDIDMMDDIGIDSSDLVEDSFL

Inhibition effect (%) PDGFRα (PDGFRα)	Inhibition effect (%) PDGFRβ (PDGFRβ)	IC50 (BEL7404)	IC50 (Hep3B)	IC50 (SMMC-7721)	IC50 (SNU368)	Structure (SMILES)	IC50 (MHCC97-L)	IC50 (QGY-7703)
27.18%	7.35%	5.2 µM	15.8 µM	0.4 µM	11.4 µM	Cc1ccc(NC(=O)c2ccoc2)cc1Oc1nccc(-c2cc3ccccc3o2)n1 [E4]		
	43.74%	12.2 µM	17.5 µM	17.5 µM	54 µM	Cc1cccc(C(=O)Nc2ccc(C)c(Oc3nccc(-c4cccnc4)n3)c2)c1 [A4]	24.5 µM	39.8 µM
43.17%	31.94%	134 µM	130 µM	113 µM	287 µM	Cc1ccc(NC(=O)c2ccncc2)cc1Oc1nccc(-c2cccnc2)n1 [A12]	281 µM	170 µM
16.27%	5.08%	20.8 µM	17 µM	16.8 µM	28.4 µM	Cc1ccc(NC(=O)c2cccs2)cc1Oc1nccc(-c2cccc3ccccc23)n1 [C5]	28 µM	35.2 µM
13.74%	28.93%	48.7 µM	11.4 µM	1.5 µM	37.3 µM	Cc1ccc(NC(=O)c2ccccc2)cc1Oc1nccc(-c2ccco2)n1 [D1]	1.6 µM	2.5 µM
2.32%	12.87%	10.5 µM	2.7 µM	2.7 µM	17.7 µM	Cc1ccc(NC(=O)c2ccccc2)cc1Oc1nccc(-c2ccccc2)n1 [B1]	4.9 µM	5.8 µM
40.63%	30.94%	28.2 µM	20.1 µM	21.1 µM	38.7 µM	Cc1ccc(NC(=O)c2ccc(F)cc2)cc1Oc1nccc(-c2cccnc2)n1 [A10]	35.7 µM	43.4 µM
24.14%	-0.94%	6.7 µM	19.7 µM	14.3 µM	17.2 µM	Cc1ccc(NC(=O)c2ccc(Cl)cc2)cc1Oc1nccc(-c2cccc3ccccc23)n1 [C6]	> 200 µM	19.2 µM
6.37%	2.32%	37.1 µM	31 µM	34.5 µM	29.3 µM	CC(=O)Nc1ccc(C)c(Oc2nccc(-c3cc4ccccc4n3C)n2)c1 [F1]	48.4 µM	195 µM
31.49%	16.63%	18.3 µM	15.5 µM	17 µM	14 µM	Cc1ccc(NC(=O)c2cccc(Cl)c2)cc1Oc1nccc(-c2ccccc2)n1 [B7]	> 200 µM	25.8 µM
51.79%	43.49%	12.4 µM	11.2 µM	12.4 µM	24 µM	Cc1ccc(NC(=O)c2cccc(Cl)c2)cc1Oc1nccc(-c2ccco2)n1 [D5]	14.7 µM	22.5 µM
22.61%	37.72%	17.6 µM	9.7 µM	7.9 µM	22.2 µM	COc1ccc(C(=O)Nc2ccc(C)c(Oc3nccc(-c4ccco4)n3)c2)cc1 [D3]	8.5 µM	15.7 µM
33.27%	1.32%	36.2 µM	32 µM	21 µM	43 µM	CC(=O)Nc1ccc(C)c(Oc2nccc(-c3cccc4ccccc34)n2)c1 [C1]	109 µM	91.6 µM
1.56%	1.82%	10.1 µM	86.8 µM	0.3 µM	8.5 µM	CC(=O)Nc1ccc(C)c(Oc2nccc(-c3cc4ccccc4o3)n2)c1 [E1]	5.7 µM	0.3 µM
23.12%	26.17%	3.7 µM	4.6 µM	6 µM	12.8 µM	Cc1ccc(C(=O)Nc2ccc(C)c(Oc3nccc(-c4ccccc4)n3)c2)cc1 [B3]	6.1 µM	7.3 µM
35.04%	24.42%	9.5 µM	6.4 µM	6.2 µM	12.9 µM	Cc1cccc(C(=O)Nc2ccc(C)c(Oc3nccc(-c4ccccc4)n3)c2)c1 [B4]	7 µM	10.2 µM
21.09%	17.63%	14.4 µM	13 µM	11.7 µM	24.8 µM	Cc1ccc(NC(=O)Cc2ccccc2)cc1Oc1nccc(-c2ccccc2)n1 [B2]	16.9 µM	20.6 µM
45.45%	45.50%	32.8 µM	21.2 µM	25.1 µM	51.4 µM	Cc1ccc(C(=O)Nc2ccc(C)c(Oc3nccc(-c4cccnc4)n3)c2)cc1 [A3]	22.3 µM	47 µM
	43.24%	20.1 µM	14.3 µM	10.1 µM	25.7 µM	Cc1ccc(NC(=O)c2ccc([N+](=O)[O-])cc2)cc1Oc1nccc(-c2cccnc2)n1 [A8]	34.6 µM	24.6 µM
32.00%	5.08%	21.6 µM	44.2 µM	20.2 µM	18 µM	Cc1ccc(NC(=O)c2cccnc2)cc1Oc1nccc(-c2ccccc2)n1 [B11]	53.5 µM	81.1 µM
45.20%	33.70%	15.6 µM	23.3 µM	23.5 µM	49.5 µM	COc1ccc(C(=O)Nc2ccc(C)c(Oc3nccc(-c4cccnc4)n3)c2)cc1 [A5]	31.3 µM	40.5 µM
18.56%	19.39%	5.9 µM	9 µM	4.6 µM	14.7 µM	Cc1ccc(NC(=O)CN2CCOCC2)cc1Oc1nccc(-c2cc3ccccc3o2)n1 [E7]	59.1 µM	10.3 µM
12.21%	-4.46%	19 µM	33.8 µM	27.9 µM	29.1 µM	CCC(=O)Nc1ccc(C)c(Oc2nccc(-c3cc4ccccc4n3C)n2)c1 [F2]	31.8 µM	51.9 µM
36.82%	46.75%	32.8 µM	28.3 µM	21.6 µM	43.8 µM	Cc1ccc(NC(=O)Cc2ccccc2)cc1Oc1nccc(-c2ccco2)n1 [D2]	26.4 µM	42.2 µM
	40.23%	32.8 µM	18.9 µM	27.2 µM	45.9 µM	Cc1ccc(NC(=O)c2cccc(Cl)c2)cc1Oc1nccc(-c2cccnc2)n1 [A7]	51.5 µM	57.8 µM
	40.73%	39.3 µM	39.5 µM	84.3 µM	112 µM	Cc1ccc(NC(=O)Cc2ccccc2)cc1Oc1nccc(-c2cccnc2)n1 [A2]	> 200 µM	59.8 µM
